Assay results reported in patent US4518611A, “2-Furylbutyrolactone modulation of the immune system in mammals” (priority 1983, dated 1985).
Values joined by “and” are separate entries in the source; they are usually repeats but may differ in a detail not shown here. Equal values may be shown once. “Also recorded” adds a separate entry of the source. Read-outs that look alike come from different tables or passages of the source.

What was measured:
[1] = tested on: L5178Y tumor cells; details: for No. Survivors: 100 mg/kg
Protocol: Ten days later the resultant tumor nodule, about 1 cm in size, is surgically excised. If the excision was successful, no subcutaneous tumors develop at the site of implantation. […] These mice are considered to be in the tumor dormant state.
The effect of Cpd. 1 on the establishment of the L5178Y tumor dormant state is studied by treating forty DBA/2 mice with Cpd. 1 after the mice have undergone the TDS inducing procedure. […] 1 at 100 mg/kg and the remaining twenty mice receive buffer only. A partial peritoneal lavage is performed twenty-five days after the last dose of Cpd. 1 and the peritoneal exudate fluid is plated out for determination of tumor cell numbers (tumor cell quantitative assay). Survival time is recorded out to 90 days after challenge with the viable L5178Y tumor cells. The percent mortality is calculated for each group.
The effect of Cpd. 1 on the establishment of the L5178Y tumor dormant state was studied by treating forty DBA/2 mice with Cpd. 1 after the mice had undergone the TDS inducing procedure. Two days after the mice were challenged with i.p. administration of 50,000 viable L5178Y tumor cells, twenty of these mice received seven consecutive days of i.p. treatment with Cpd. 1 at 100 mg/kg and the remaining twenty mice received buffer only. A partial peritoneal lavage was performed twenty-five days after the last dose of Cpd. 1 and the peritoneal exudate fluid was plated out for determination of tumor cell numbers (tumor cell quantitative assay). Survival time was recorded out to 114 days after challenge with the viable L5178Y tumor cells. The percent mortality was calculated for each group.

[2] = tested on: FLC-745 target cells; assay: MLTC assay of cytotoxic lymphocyte (CTL) activity, FLC-745 target cells; type: cell-based, mouse, DBA/2
From the text: A mixed lymphocyte tumor culture (MLTC) immunoassay, used to determine the cytotoxic lymphocyte (CTL) activity employs lymphocytes from either immunized (sensitized) mice or DBA/2 tumor dormant state animals in various stages of the tumor dormant state (TDS). The assay employs L5178Y target cells labeled with ^51 Chromium and effector cells (sensitized lymphocytes) from the above-mentioned sources. Effector-target cell ratios will vary with different experimental conditions and may or may not include irradiated stimulator L5178Y cells. Results are expressed as % lysis of target cells based on ratio of cpm of test group over cpm of total release (maximum) both of which are corrected for spontaneous release of ^51 Cr. The assay can be performed as an 8 or 18 hour release assay.
An MLTC assay is performed to assess the CTL activity and tumor target cell specificity of Cpd. 1. Tumor dormant spleen cells and normal spleen cells of DBA/2 mice are used as effector cells. Irradiated L5178Y cells are used as stimulator cells. ^51 Cr-labeled L5178Y cells and FLC-745 cells are used as target cells. The effector/target ratios studied are 100:1, 30:1 and 10:1.

[3] = tested on: human lymphocytes; assay: In vitro lymphocyte stimulation assay, human lymphocytes; type: cell-based
Protocol: The purpose of this assay is to challenge lymphocytes in microcultures with one or more polyclonal mitogens at concentrations that will induce mitogenesis within 72 hours of stimulation.
In the mouse model, spleens are removed from different strains of mice and the spleen cells are teased free and suspended in RPMI-1640 tissue culture medium at a concentration of usually […]. These cells are dispensed at a concentration of 5.0×10^5 cells per microculture well in a 96 well flat bottom 96 well tissue culture plate. All testing of the compounds of this invention or mitogens are done in replicates of 10. The cells are then treated with PHA, Con-A, specific antigens, or buffer only. If in vitro testing is done, varying concentrations of the compounds of this invention or buffer only are added to the cells as well. After treatment with the mitogens and/or compounds of this invention, the cells are incubated for 72 hours. The response of these cells to mitogens and/or the compounds of this invention is assessed using ^14 C-thymidine labeling on the fourth day at a concentration of 0.01 μCi/well. The labeled cells are harvested using a lymphocyte harvestor and placed onto fibrous paper discs. A scintillation cocktail is added to vials containing the discs and the results are obtained using a LKB-liquid scintillation counter (Model 1216/Rackbeta II). The data is expressed as a ratio of the cpm of the mitogen stimulated group to the control (nonmitogen) treated group=lymphocyte stimulation index (LSI).
The lymphocyte stimulation assay may be performed directly on spleen cells obtained from various strains of mice not treated with the compounds of this invention or on lymphocytes obtained from human […]. […] Alternatively, the mice may be treated in vivo with the compounds of this invention by intraperitoneal multi-dose schedules, followed by sacrifice and harvesting spleen lymphocytes. These cells are then tested for their response to polyclonal mitogens or specific antigens used to immunize the mice. In this system however, no additional compound is added to the in vitro lymphocyte stimulation assay system.
Lymphocytes isolated from 5 human volunteers are treated in vitro with PHA and Con-A and either 0.1, 1, 10, 50, or 100 μg/well of Cpd. 1, 0.1, 1, 10, 50, or 100 μg/well of AA, or buffer.

[4] = No. tumor cells >100,000, 100 mg/kg i.p., 7 days

Cc1ccc(C2(O)C(=O)OC3C(O)COC32O)o1.Cc1ccc(C2(O)C(=O)OC3C(O)COC32O)o1.O=C1CCC(=O)O1 (centres unmarked) [Cpd. 1, 2-furylbutyrolactone:succinic anhydride]
numbers of tumor cells recovered (in words) ([1]; 100 mg/kg i.p., 7 days): significant reduction in the numbers of tumor cells recovered
survival (in words) ([1]; 100 mg/kg i.p., 7 days): significantly greater survival
No. Survivors ([1]; 90 days post-challenge): 10
No. Survivors ([1]; 114 days post-challenge): 19
Frequency (mice), treated group ([1]; No. tumor cells 1,000 to 100,000, 100 mg/kg i.p., 7 days): 7 and 4
% of Total, treated group [1, 4]: 6% and 4.3%
Frequency (mice), treated group [1, 4]: 1
% Lysis ([2]; E + D, E/T 10:1, TDS effectors, no stimulators): 0.7%
% Lysis ([2]; E + D, E/T 30:1, TDS effectors, no stimulators): 4.6%
% Lysis ([2]; E + D, E/T 100:1, TDS effectors, no stimulators): 6.6%
% Lysis ([2]; E + S + D, E/T 10:1, TDS effectors + stimulators): 0.5%
% Lysis ([2]; E + S + D, E/T 30:1, TDS effectors + stimulators): 3.6%
enhancement of CTL activity (in words) ([2]; FLC-745 target, TDS effectors with stimulator cells): This effect is not observed in the FLC-745 target control system
% Lysis ([2]; N + D, E/T 10:1, normal spleen cells, no stimulators): -3.5%
% Lysis ([2]; N + D, E/T 30:1, normal spleen cells, no stimulators): 0.9%
% Lysis ([2]; N + S + D, E/T 10:1, normal spleen cells + stimulators): -1.1%
% Lysis ([2]; N + S + D, E/T 30:1, normal spleen cells + stimulators): -0.8%
% Lysis ([2]; N + S + D, E/T 100:1, normal spleen cells + stimulators): 5.8%
Lymphocyte Stimulation Index, Con-A ([3]; 0.1 μg/well): 38.06
Lymphocyte Stimulation Index, PHA ([3]; 0.1 μg/well): 56.67
Lymphocyte Stimulation Index, Con-A ([3]; 1.0 μg/well): 32.63
Lymphocyte Stimulation Index, PHA ([3]; 1.0 μg/well): 48.60
Lymphocyte Stimulation Index, Con-A ([3]; 10 μg/well): 23.82
Lymphocyte Stimulation Index, PHA ([3]; 10 μg/well): 34.37
Lymphocyte Stimulation Index, Con-A ([3]; 50 μg/well): 1.33
Lymphocyte Stimulation Index, PHA ([3]; 50 μg/well): 0.40
Lymphocyte Stimulation Index, Con-A ([3]; 100 μg/well): 0.44
Lymphocyte Stimulation Index, PHA ([3]; 100 μg/well): 0.544
effect on lymphocyte response (in words) ([3]; in vitro, PHA and Con-A): a high dose anti-proliferative effect, at doses of 100 and 50 μg/ml; also recorded: markedly increased lymphocyte response at very low doses of 1 and 0.1 μg/ml
